The values that follow come from patent EP0782989A1, “INDOLE DERIVATIVES” (KYOWA HAKKO KOGYO CO., LTD., priority 1995, dated 1997).

Experiment [1] deals with ovariectomized rats. Put plainly: Inhibitory effect on the increase of urinary hydroxyproline excretion by ovariectomy. It is filed as in vivo, SD strain rats. Particulars: Rattus norvegicus, po, 336 h; 10 mg/kg orally once a day for two weeks after ovariectomy; hydroxyproline/creatinine molar ratio in 24 hours urine; read-out: Inhibition rate of increase of the amount of urinary hydroxyproline excretion.
Protocol: The inhibitory effect of the compounds of the present application on bone resorption was also determined by their inhibitory effect on the excretion of urinary hydroxyproline which is elevated by ovariectomy of the animals tested, according to the report of Kalu et al. [Bone and Mineral., 14, 175 (1991)].
Test Example 2: Inhibitory effect on the increase of urinary hydroxyproline excretion by ovariectomy
12-weeks-old female SD strain rats (Japan Clea Co., Ltd.) were acclimated for 1 week during which they were given tap water and a standard diet (F2; Funabashi Farmas) ad libitum. The experiment was carried out using the rats weighing 270-310 g. After the animals were subjected to sham operation or bilateral ovariectomy, they were allowed free access to water passed through ion exchange resin instead of tap water, and were housed in individual cages. The test compound (10 mg/kg) was suspended in 0.3% Tween or 0.5% methylcellulose, and the obtained suspension was orally administered to the ovariectomized rats once a day for two weeks starting from the day following ovariectomy (0.5 ml/100 g body weight). 0.3% Tween or 0.5% methylcellulose was similarly administered to sham-operated rats and ovariectomized control rats. After the final administration, the rats were placed in individual metabolic cages and fasted during 24 hours, and urine was collected. The volume of the collected urine was measured and the urine was centrifuged at 3,000 rpm for 15 min at 4°C. The concentration of hydroxyproline in the supernatant was measured by the method of Ikeda et al. [Ann. […] P. H., 36, 277-282 (1985)] and the concentration of creatinine in the supernatant was measured with creatinine test WAKO (Wako Pure Chem.) The amount of urinary hydroxyproline excretion was expressed by the molar ratio of the amount of hydroxyproline to the amount of creatinine. The rate of inhibition on increase of the amount of urinary hydroxyproline excretion in ovariectomized rats treated with the test compound compared to that of the control group was calculated using the following equation. Inhibition rate (%) = [(P1 - P2)/(P1 - P3)] x 100 [formula] • P1 : The amount of urinary hydroxyproline excretion in ovariectomized rats treated with 0.3% Tween (µmol/mmol). • P2 : The amount of urinary hydroxyproline excretion in ovariectomized rats treated with the test compound (µmol/mmol). • P3 : The amount of urinary hydroxyproline in sham-operated rats treated with 0.3% Tween (µmol/mmol).

The test system of experiment [2] is PTH enhanced bone. Briefly: Inhibitory effect on bone absorption (calcium liberation from PTH enhanced cultured calvaria). It is filed as cell-based, newborn dd mouse. Particulars: Mus musculus; calvaria culture with PTH 1 x 10^-8M, 96 hours, total calcium in the culture; test compound 3 x 10^-6M, 1 x 10^-5M, 3 x 10^-5M. As for the experimental part:
Test Example 1: Inhibitory effect on bone absorption The calvaria was excised from a newborn dd mouse (5 to 6 days old) under sterile conditions. The calvaria was washed with a modified Dulbecco phosphate buffer physiological saline solution containing neither calcium nor magnesium (a product of Gibco Oriental), and divided into two parts along the center suture. A half of the calvaria was cultivated in a modified Dulbecco Eagle medium (1.5 ml) (a product of Gibco Oriental) containing 2.5% fetal calf serum and 15% equine serum which had been inactivated by heating at 56°C for 20 minutes. The test compound was dissolved in dimethyl sulfoxide and 10 μl of the resulting solution was added to the culture medium to give the final concentrations of 3 x 10^-6M, 1 x 10^-5M, and 3 x 10^-5M. PTH (parathyroid hormone) was dissolved in a 0.15 M saline solution (pH 3) and 3 μl of the resulting solution was added to the culture medium to give the final concentration of 1 x 10^-8M. The culturing was carried out under the condition of 95% air and 5% carbon dioxide and at a temperature of 37°C for 96 hours. At 48 hours after the start of the culturing, the culture medium was renewed and the test compound and PTH treated as defined above were added thereto. For examining the effect of the test compound on calcium liberation (bone absorption) from the PTH enhanced bone, a control group, a group using PTH (1 x 10^-8M), and a group using both the test compound (3 […]) and PTH were prepared. The amount of the bone absorption was determined by measuring the amount of calcium accumulated in the culture as collected after 96 hours of culturing. The total calcium concentration in the culture was measured with Calcium C Test Wako. The inhibition rate was calculated using the following equation and the result was shown in terms of 50% inhibitory concentration (IC50). Inhibition of bone absorption from PTH enhanced bone Inhibition rate (%) = [(CP - CD )/(CP - C0 )] x 100 [formula] • C0 : The total calcium concentration in the culture containing neither the test compound nor PTH. • CP : The total calcium concentration in the culture treated with only PTH. • CD : The total calcium concentration in the culture treated with both the test compound and PTH.

The test system of experiment [3] is ovariectomized rats. Put plainly: Inhibitory effect on decrease of bone density by ovariectomy (tibia, DEXA). It is filed as in vivo, SD strain rats. Conditions: 10 mg/kg orally once a day for 6 weeks. As for the experimental part:
Test Example 3: Inhibitory effect on decrease of bone density by ovariectomy
The experiment was carried out using 13-weeks-old female SD strain rats (Japan Crea Co. Ltd.) The animals were subjected to sham operation or bilateral ovariectomy under Nembutal anesthesia. The test compound (10 mg/kg) was dissolved or suspended in 0.5% methylcellulose (Shin-Etsu Chemical Co., Ltd.) and administered orally once a day from the first day after the operation for 6 weeks. For the sham-operated group and the ovariectomized control group, 0.5% methylcellulose (Shin-Etsu Chemical Co., Ltd.) was administered orally. The rat was slaughtered by femoral artery bleeding, the right hindlimb was ablated, and then the bone mineral content (BMC) and bone density (BD) of the tibia was measured according to a DEXA (DXA) method [Japan Clinic, 52 (9), 2329-2334 (1994)] using bone mineral measuring apparatus DCS-600 (Aloka Co., Ltd.). Tibial BMC and BD in the sham-operated, ovariectomized control, and test compound-treated ovariectomized group are shown in Table 4.

Where a name gives a salt, the structure may show the parent alone.

For `O=C(c1c(C(c2ccccc2)c2ccccc2)c2ccccc2n1CCN1CCCC1)N1CCN(c2ccccc2Cl)CC1` [Compound 4, 2-[4-(2-Chlorophenyl)piperazinylcarbonyl]-3-(diphenylmethyl)-1-(2-pyrrolidinylethyl)indole], the inhibition in vivo at 10 mg/kg in experiment [1] came to 43%.
On to `CN(C)CCn1c(C(=O)O)c(C(c2ccccc2)c2ccccc2)c2ccccc21` [Compound 6, 1-(2-Dimethylaminoethyl)-3-(diphenylmethyl)indole-2-carboxylic acid], for which the inhibition in vivo at 10 mg/kg in experiment [1] was found to be 100%.
Consider `CC(C)NC(=O)c1c(C(c2ccccc2)c2ccccc2)c2ccccc2n1CCN(C)C` [Compound 8, N-Isopropyl-1-(2-dimethylaminoethyl)-3-(diphenylmethyl)indole-2-carboxamide], for which the half-maximal inhibitory concentration (IC50) (usually the concentration at which inhibition is half-maximal) in experiment [2] worked out at 14.3 µM. Moreover, the inhibition in vivo at 10 mg/kg in experiment [1] is 100%.
On to `CN(C)CCn1c(C(=O)N2CCCCC2)c(C(c2ccccc2)c2ccccc2)c2ccccc21` [Compound 10, 1-(2-Dimethylaminoethyl)-3-(diphenylmethyl)-2-(piperidinocarbonyl)indole], for which, in experiment [2], the IC50 amounted to 9.1 µM.
Regarding `CN(C)CCn1c(C(=O)NC2CCCCCC2)c(C(c2ccccc2)c2ccccc2)c2ccccc21` [Compound 11, N-Cycloheptyl-1-(2-dimethylaminoethyl)-3-(diphenylmethyl)indole-2-carboxamide], the IC50 in experiment [2] came out at 17.5 µM. Also, the inhibition in vivo at 10 mg/kg in experiment [1] is 100%.
With `CN(C)CCn1c(C(=O)N2CCOCC2)c(C(c2ccccc2)c2ccccc2)c2ccccc21` [Compound 13, 1-(2-Dimethylaminoethyl)-3-(diphenylmethyl)-2-(morpholinocarbonyl)indole], the 50% inhibitory concentration (IC50) in experiment [2] came out at 11.2 µM.
As to `CN(C)CCn1c(C(=O)N2CCN(c3ccccc3)CC2)c(C(c2ccccc2)c2ccccc2)c2ccccc21` [Compound 14, 1-(2-Dimethylaminoethyl)-3-(diphenylmethyl)-2-(4-phenylpiperazinylcarbonyl)indole], in experiment [2], the IC50 was 10.9 µM.
Take `CN(C)CCn1c(C(=O)N2CCN(Cc3ccccc3)CC2)c(C(c2ccccc2)c2ccccc2)c2ccccc21` [Compound 15, 2-(4-Benzylpiperazinylcarbonyl)-1-(2-dimethylaminoethyl)-3-(diphenylmethyl)indole]: in experiment [2], the IC50 was determined as 14.3 µM. The inhibition in vivo at 10 mg/kg in experiment [1] worked out at 100%.
For `CN(C)CCn1c(C(=O)NCCCN2CCOCC2)c(C(c2ccccc2)c2ccccc2)c2ccccc21` [Compound 20, N-(3-Morpholinopropyl)-1-(2-dimethylaminoethyl)-3-(diphenylmethyl)indole-2-carboxamide], in that order: 3.7 µM and 100%.
Take `CN(C)CCn1c(C(=O)NCCCN2CCCC2=O)c(C(c2ccccc2)c2ccccc2)c2ccccc21` [Compound 21, N-[3-(2-Oxopyrrolidinyl)propyl]-1-(2-dimethylaminoethyl)-3-(diphenylmethyl)indole-2-carboxamide]: the “BD (mg/cm^2)” value in experiment [3] (tibia bone density) worked out at 126.95 ± 1.78 mg/cm^2. Besides, the “BMC” value in experiment [3] (tibia bone mineral content) was determined as 268.81 ± 7.38 mg. Moreover, the IC50 in experiment [2] came to 14.3 µM. Also, the inhibition in vivo at 10 mg/kg in experiment [1] was found to be 100%.
For `CN(C)CCn1c(C(=O)NCCCn2ccnc2)c(C(c2ccccc2)c2ccccc2)c2ccccc21` [Compound 22, N-[3-(1-Imidazolyl)propyl]-1-(2-dimethylaminoethyl)-3-(diphenylmethyl)indole-2-carboxamide], the half-inhibitory concentration (IC50) in experiment [2] was determined as 13.7 µM. Further, the inhibition in vivo at 10 mg/kg in experiment [1] was 87%.
For the molecule `CN(C)CCn1c(C(=O)NC2CC2)c(C(c2ccccc2)c2ccccc2)c2ccccc21` [Compound 51, N-Cyclopropyl-1-(2-dimethylaminoethyl)-3-(diphenylmethyl)indole-2-carboxamide hydrochloride], the inhibition in vivo at 10 mg/kg in experiment [1] turned out to be 70%.
With `CNC(=O)c1c(C(c2ccccc2)c2ccccc2)c2ccccc2n1CCN(C)C` [Compound 56, N-Methyl-1-(2-dimethylaminoethyl)-3-(diphenylmethyl)indole-2-carboxamide hydrochloride], in experiment [2], the IC50 came out at 13 µM. In addition, the inhibition in vivo at 10 mg/kg in experiment [1] was determined as 57%.
Consider `O=C(NCCN1CCCCC1)c1c(C(c2ccccc2)c2ccccc2)c2ccccc2n1CCN1CCCC1` [Compound 62, N-(2-Piperidinoethyl)-3-(diphenylmethyl)-1-(2-pyrrolidinylethyl)indole-2-carboxamide 2 hydrochloride], for which the IC50 in experiment [2] is 18.1 µM. The inhibition in vivo at 10 mg/kg in experiment [1] turned out to be 53%.
The matching figures for `CCOC(=O)c1c(C(c2ccccc2)c2ccccc2)c2ccccc2n1CCCN(C)C` [Compound 64, Ethyl 1-(3-dimethylaminopropyl)-3-(diphenylmethyl)indole-2-carboxylate]: 16.7 µM and 77%.
The matching figures for `CCCc1ccc(NC(=O)c2c(C(c3ccc(Cl)cc3)c3ccc(Cl)cc3)c3ccccc3n2CCN(C)C)cc1` [Compound 97, N-(4-propylphenyl)-3-[bis(4-chlorophenyl)methyl]-1-(2-dimethylaminoethyl)indole-2-carboxamide hydrochloride]: 14.3 µM and 40%.
Take `CCOC(=O)c1c(C(c2ccc(C)cc2)c2ccc(C)cc2)c2ccccc2n1CCN1CCCCC1` [Compound 98, Ethyl 3-[bis(4-methylphenyl)methyl]-1-(2-piperidinoethyl)indole-2-carboxylate]: in experiment [1], the inhibition in vivo at 10 mg/kg is 47%.
For `CC(C)NC(=O)c1c(C(c2ccccc2)c2ccc(O)cc2)c2ccccc2n1CCN(C)C` (centres unmarked) [Compound 119, N-Isopropyl-1-(2-dimethylaminoethyl)-3-(4-hydroxybenzhydryl)indole-2-carboxamide hydrochloride], in experiment [2], the IC50 came out at 10.8 µM.
Same read-out and setting: the figure for `CCCc1ccc(NC(=O)c2c(C(c3ccccc3)c3ccc(O)cc3)c3ccccc3n2CCN(C)C)cc1` (centres unmarked) [Compound 120, N-(4-Propylphenyl)-1-(2-dimethylaminoethyl)-3-(4-hydroxybenzhydryl)indole-2-carboxamide hydrochloride] is 10.5 µM.
Consider `CN(C)CCn1c(C(=O)NCCCN2CCOCC2)c(C(c2ccccc2)c2ccc(O)cc2)c2ccccc21` (centres unmarked) [Compound 121, N-(3-Morpholinopropyl)-1-(2-dimethylaminoethyl)-3-(4-hydroxybenzhydryl)indole-2-carboxamide 2 hydrochloride], for which, in experiment [1], the inhibition in vivo at 10 mg/kg came to 59%.
